In ChEMBL document CHEMBL2346597, “Use of core modification in the discovery of CC214-2, an orally available, selective inhibitor of mTOR kinase” (Bioorg Med Chem Lett, 2013):
The source made the active and inactive calls. The calls are words filed in the database; no cut-off is given here.

How the values were obtained:
[1] = Plasma concentration in CB17 SCID mouse xenografted with human PC3 cells at 30 mg/kg, po qd at 8 hrs; type: ADME, organism-based, PC-3; set-up: dose 30 mg/kg, route oral
Plasma [2] = experiment: Free plasma concentration in CB17 SCID mouse xenografted with human PC3 cells at 30 mg/kg, po qd at 24 hrs; type: ADME, organism-based, PC-3; set-up: dose 30 mg/kg, route oral; conditions: in vivo
Mus musculus [3] = experiment: In vivo inhibition of mTORC1 in human PC3 cells xenografted in CB17 SCID mouse assessed as inhibition of S6 phosphorylation at 30 mg/kg, po qd measured at 24 hrs relative to vehicle-treated control; type: functional; conditions: CB17, PC-3, 24 h
[4] = Plasma concentration in CB17 SCID mouse xenografted with human PC3 cells at 30 mg/kg, po qd at 24 hrs; type: ADME, organism-based, PC-3; set-up: dose 30 mg/kg, route oral
[5] = Drug uptake in tumor of CB17 SCID mouse xenografted with human PC3 cells at 30 mg/kg, po qd at 24 hrs; type: ADME, organism-based, Neoplasm, PC-3; set-up: dose 30 mg/kg, route oral; conditions: read-out: Drug uptake
PC-3 [6] = experiment: Antitumor activity against human PC3 cells xenografted in CB17 SCID mouse assessed as tumor growth inhibition at 50 mg/kg, po qd administered on day 11 post tumor implantation measured after 32 days relative to vehicle-treated control; type: functional; conditions: read-out: TGI
PC-3 [7] = conditions: Homo sapiens
[8] = Plasma protein binding in CB17 SCID mouse xenografted with human PC3 cells at 30 mg/kg, po qd after 24 hrs; type: ADME, organism-based, PC-3; set-up: dose 30 mg/kg, route oral; conditions: read-out: PPB (converted)
[9] = Drug uptake in tumor of CB17 SCID mouse xenografted with human PC3 cells at 30 mg/kg, po qd at 4 hrs; type: ADME, organism-based, Neoplasm, PC-3; set-up: dose 30 mg/kg, route oral; conditions: read-out: Drug uptake
Plasma [10] = experiment: Free plasma concentration in CB17 SCID mouse xenografted with human PC3 cells at 30 mg/kg, po qd at 2 hrs; type: ADME, organism-based, PC-3; set-up: dose 30 mg/kg, route oral; conditions: in vivo
[11] = target: Phosphatidylinositol 4,5-bisphosphate 3-kinase catalytic subunit alpha isoform (Homo sapiens, UniProt P42336); experiment: Inhibition of PI3Kalpha (unknown origin) by mobility shift assay
Phosphatidylinositol 4,5-bisphosphate 3-kinase catalytic subunit alpha isoform, sequence (P42336 whole entry, canonical isoform): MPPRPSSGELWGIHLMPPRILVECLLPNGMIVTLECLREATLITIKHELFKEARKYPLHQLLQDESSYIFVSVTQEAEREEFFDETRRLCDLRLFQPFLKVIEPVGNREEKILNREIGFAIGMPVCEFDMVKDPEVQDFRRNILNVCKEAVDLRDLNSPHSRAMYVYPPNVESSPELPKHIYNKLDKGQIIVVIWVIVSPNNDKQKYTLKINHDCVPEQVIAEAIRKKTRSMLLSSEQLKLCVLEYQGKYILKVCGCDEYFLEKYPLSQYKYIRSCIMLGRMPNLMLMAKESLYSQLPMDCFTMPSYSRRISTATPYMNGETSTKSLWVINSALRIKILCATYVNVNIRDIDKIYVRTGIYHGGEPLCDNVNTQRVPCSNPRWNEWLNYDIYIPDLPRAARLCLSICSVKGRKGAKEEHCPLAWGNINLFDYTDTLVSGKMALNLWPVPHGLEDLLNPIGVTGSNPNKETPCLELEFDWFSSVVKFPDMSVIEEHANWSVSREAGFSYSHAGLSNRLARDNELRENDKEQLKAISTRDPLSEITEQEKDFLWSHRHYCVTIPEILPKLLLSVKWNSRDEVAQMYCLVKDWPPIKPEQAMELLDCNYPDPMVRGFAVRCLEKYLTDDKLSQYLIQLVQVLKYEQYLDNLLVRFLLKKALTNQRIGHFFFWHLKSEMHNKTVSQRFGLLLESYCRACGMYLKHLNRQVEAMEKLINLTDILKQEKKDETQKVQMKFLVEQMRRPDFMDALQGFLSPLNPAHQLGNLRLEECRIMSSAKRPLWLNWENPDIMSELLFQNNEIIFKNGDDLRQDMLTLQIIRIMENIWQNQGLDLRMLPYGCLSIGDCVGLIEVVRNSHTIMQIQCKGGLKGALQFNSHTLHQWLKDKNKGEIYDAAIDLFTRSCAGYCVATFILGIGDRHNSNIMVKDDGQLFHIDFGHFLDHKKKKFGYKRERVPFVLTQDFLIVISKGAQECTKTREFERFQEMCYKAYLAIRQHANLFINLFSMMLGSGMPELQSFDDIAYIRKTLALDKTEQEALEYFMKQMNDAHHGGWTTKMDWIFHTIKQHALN

PC-3 [12] = experiment: Antitumor activity against human PC3 cells xenografted in CB17 SCID mouse assessed as tumor growth inhibition at 10 mg/kg, po qd administered on day 11 post tumor implantation measured after 32 days relative to vehicle-treated control; type: functional; conditions: read-out: TGI
[13] = Cmax in rat at 5 mg/kg, po; type: ADME, organism-based; set-up: dose 5 mg/kg, route oral; conditions: in vivo
Mus musculus [14] = experiment: In vivo inhibition of mTORC1 in human PC3 cells xenografted in CB17 SCID mouse assessed as inhibition of S6 phosphorylation at 30 mg/kg, po qd after 2 to 8 hrs relative to vehicle-treated control; type: functional; conditions: CB17, PC-3
[15] = AUC (0 to infinity) in rat at 2 mg/kg, iv; type: ADME, organism-based; set-up: time infinity, dose 2 mg/kg, route intravenous; conditions: plasma
PC-3 [16] = experiment: Antitumor activity against human PC3 cells xenografted in CB17 SCID mouse assessed as tumor growth inhibition at 25 mg/kg, po qd administered on day 11 post tumor implantation measured after 32 days relative to vehicle-treated control; type: functional; conditions: read-out: TGI
PC-3 [17] = conditions: Homo sapiens; remark: listed apart in the source
[18] = Clearance in rat at 2 mg/kg, iv; type: ADME, organism-based; set-up: dose 2 mg/kg, route intravenous; conditions: in vivo
PC-3 [19] = conditions: Homo sapiens; remark: listed apart in the source
[20] = Volume of distribution at steady state in rat at 2 mg/kg, iv; type: ADME, organism-based; set-up: dose 2 mg/kg, route intravenous; conditions: in vivo, read-out: Vdss
Plasma [21] = experiment: Free plasma concentration in CB17 SCID mouse xenografted with human PC3 cells at 30 mg/kg, po qd at 4 hrs; type: ADME, organism-based, PC-3; set-up: dose 30 mg/kg, route oral; conditions: in vivo
Mus musculus [22] = experiment: In vivo inhibition of mTORC2 in human PC3 cells xenografted in CB17 SCID mouse assessed as inhibition of AKTS473 phosphorylation at 30 mg/kg, po qd after 2 to 8 hrs relative to vehicle-treated control; conditions: CB17, PC-3, po
[23] = Oral bioavailability in rat at 5 mg/kg; type: ADME, organism-based; conditions: in vivo
Plasma [24] = experiment: Free plasma concentration in CB17 SCID mouse xenografted with human PC3 cells at 30 mg/kg, po qd at 8 hrs; type: ADME, organism-based, PC-3; set-up: dose 30 mg/kg, route oral; conditions: in vivo
[25] = Plasma concentration in CB17 SCID mouse xenografted with human PC3 cells at 30 mg/kg, po qd at 4 hrs; type: ADME, organism-based, PC-3; set-up: dose 30 mg/kg, route oral
[26] = Drug uptake in tumor of CB17 SCID mouse xenografted with human PC3 cells at 30 mg/kg, po qd at 2 hrs; type: ADME, organism-based, Neoplasm, PC-3; set-up: dose 30 mg/kg, route oral; conditions: read-out: Drug uptake
Mus musculus [27] = experiment: Toxicity in CB17 SCID mouse xenografted with human PC3 cells at 10 to 50 mg/kg, po qd administered on day 11 post tumor implantation measured after 32 days; type: organism-based, PC-3; set-up: dose 10-50 mg/kg, route oral; conditions: in vivo
[28] = Drug uptake in tumor of CB17 SCID mouse xenografted with human PC3 cells at 30 mg/kg, po qd at 8 hrs; type: ADME, organism-based, Neoplasm, PC-3; set-up: dose 30 mg/kg, route oral; conditions: read-out: Drug uptake
PC-3 [29] = conditions: Homo sapiens; remark: listed apart in the source
Mus musculus [30] = experiment: In vivo inhibition of mTORC2 in human PC3 cells xenografted in CB17 SCID mouse assessed as inhibition of AKTS473 phosphorylation at 30 mg/kg, po qd measured at 24 hrs relative to vehicle-treated control; conditions: CB17, PC-3, po
[31] = AUC (0 to infinity) in rat at 5 mg/kg, po; type: ADME, organism-based; set-up: time infinity, dose 5 mg/kg, route oral; conditions: plasma
[32] = Plasma concentration in CB17 SCID mouse xenografted with human PC3 cells at 30 mg/kg, po qd at 2 hrs; type: ADME, organism-based, PC-3; set-up: dose 30 mg/kg, route oral
[33] = Tmax in rat at 5 mg/kg, po; type: ADME, organism-based; set-up: dose 5 mg/kg, route oral; conditions: in vivo
[34] = Mean residence time in rat at 2 mg/kg, iv; type: ADME, organism-based; set-up: dose 2 mg/kg, route intravenous; conditions: in vivo
PC-3 [35] = experiment: cells; conditions: Homo sapiens, PC-3, 72 h
[36] = Inhibition of mTORC2 in human PC3 cells assessed as inhibition of AKTS473 phosphorylation after 1 hr by sandwich immunoassay; type: cell-based; conditions: PC-3, 1 h
[37] = target: Insulin receptor (Homo sapiens) (UniProt P06213); experiment: Inhibition of IRK1 (unknown origin) assessed as remaining activity at 10 uM relative to control
Insulin receptor (Homo sapiens), sequence (P06213 whole entry, looked up): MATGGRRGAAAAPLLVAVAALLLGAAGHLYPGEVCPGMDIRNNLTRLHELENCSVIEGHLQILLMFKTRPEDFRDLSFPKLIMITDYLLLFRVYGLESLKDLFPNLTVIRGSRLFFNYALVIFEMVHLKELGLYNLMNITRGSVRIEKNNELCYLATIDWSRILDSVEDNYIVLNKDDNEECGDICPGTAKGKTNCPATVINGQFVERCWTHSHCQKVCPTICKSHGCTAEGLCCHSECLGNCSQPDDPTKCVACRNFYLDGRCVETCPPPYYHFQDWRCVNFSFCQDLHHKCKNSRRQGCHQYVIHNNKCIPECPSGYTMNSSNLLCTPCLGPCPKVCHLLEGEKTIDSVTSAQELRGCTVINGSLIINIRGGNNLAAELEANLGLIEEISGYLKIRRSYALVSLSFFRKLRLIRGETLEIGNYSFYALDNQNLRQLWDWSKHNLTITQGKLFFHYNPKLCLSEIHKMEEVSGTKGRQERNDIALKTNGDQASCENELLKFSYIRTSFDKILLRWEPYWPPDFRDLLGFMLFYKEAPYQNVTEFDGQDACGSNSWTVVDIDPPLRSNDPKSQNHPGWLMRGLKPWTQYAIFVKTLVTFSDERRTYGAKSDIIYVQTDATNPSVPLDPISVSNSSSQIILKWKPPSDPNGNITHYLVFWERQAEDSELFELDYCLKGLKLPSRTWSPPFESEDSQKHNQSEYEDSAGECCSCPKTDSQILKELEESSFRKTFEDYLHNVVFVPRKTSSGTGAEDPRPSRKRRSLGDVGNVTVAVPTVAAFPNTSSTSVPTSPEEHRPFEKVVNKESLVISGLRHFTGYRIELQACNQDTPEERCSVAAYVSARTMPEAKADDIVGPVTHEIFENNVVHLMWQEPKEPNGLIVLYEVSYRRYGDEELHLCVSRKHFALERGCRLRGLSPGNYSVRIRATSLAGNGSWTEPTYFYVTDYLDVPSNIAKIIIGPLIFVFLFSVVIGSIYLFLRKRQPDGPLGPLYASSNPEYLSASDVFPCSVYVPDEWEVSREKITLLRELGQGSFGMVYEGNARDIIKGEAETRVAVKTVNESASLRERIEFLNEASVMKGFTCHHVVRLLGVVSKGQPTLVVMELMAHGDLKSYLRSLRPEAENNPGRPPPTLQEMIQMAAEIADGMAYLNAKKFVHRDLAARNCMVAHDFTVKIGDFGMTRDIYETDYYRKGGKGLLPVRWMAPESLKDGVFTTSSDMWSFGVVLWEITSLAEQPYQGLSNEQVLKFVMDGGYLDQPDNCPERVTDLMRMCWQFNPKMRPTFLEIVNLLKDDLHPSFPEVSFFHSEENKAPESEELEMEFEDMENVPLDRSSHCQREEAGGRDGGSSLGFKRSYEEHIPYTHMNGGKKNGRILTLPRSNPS

mTORC1 = mTORC1 (Homo sapiens, UniProt P42345); experiment: Inhibition of mTORC1 in human PC3 cells assessed as inhibition of S6 phosphorylation after 1 hr by sandwich immunoassay; type: cell-based, PC-3

For `CC(C)(O)c1ccc(-c2cnc3c(n2)N(CC2CCOCC2)CC(=O)N3)cn1`, the concentration at 8 h [1] was 2420 nM, the “Cp(f)” value (Plasma [2]) was 70 nM and the inhibition in vivo at 30 mg/kg (Mus musculus [3]) was 43%. For the same molecule, the concentration at 24 h [4] was 190 nM, the concentration at 24 h [5] was 190 nM and the inhibition in vivo at 50 mg/kg (PC-3 [6]) was 84%. For the same molecule, the TGI (PC-3 [7]) was “Active”, the fraction unbound at 24 h [8] was 0.35 and the concentration at 4 h [9] was 2870 nM. The “Cp(f)” value (Plasma [10]) was 2390 nM, the IC50 [11] was greater than 30000 nM and the inhibition in vivo at 10 mg/kg (PC-3 [12]) was 18%. It also gave a Cmax [13] of 3300 nM, an inhibition in vivo at 30 mg/kg (Mus musculus [14]) of 87% and an AUC(0-inf) [15] of 10.8 µM·h. The inhibition in vivo at 25 mg/kg (PC-3 [16]) was 63%, the TGI (PC-3 [17]) was “Active” and the clearance [18] was 8.1 mL/min/kg. For the same molecule, the TGI (PC-3 [19]) was “Dose-dependent effect”, the Vd [20] was 1.3 L/kg and the “Cp(f)” value (Plasma [21]) was 1860 nM. The inhibition in vivo at 30 mg/kg (Mus musculus [22]) was 53%, the bioavailability [23] was 100% and the “Cp(f)” value (Plasma [24]) was 850 nM. The concentration at 4 h [25] was 5320 nM, the concentration at 2 h [26] was 4100 nM and the Activity (Mus musculus [27]) was “Non-toxic”. For the same molecule, the concentration at 8 h [28] was 1760 nM, the TGI (PC-3 [29]) was “Active” and the inhibition in vivo at 30 mg/kg (Mus musculus [30]) was 28%. The AUC(0-inf) [31] was 28 µM·h, the concentration at 2 h [32] was 6830 nM and the Tmax [33] was 1.2 h. It also gave an MRT [34] of 2.7 h.
For `O=C1CN(CCC2CCOCC2)c2nc(-c3ccc(-c4nc[nH]n4)cc3)cnc2N1`, the IC50 (PC-3 [35]) was 148 nM and the bioavailability [23] was 0%.
Molecule `O=c1[nH]c2ncc(-c3ccc(-c4nc[nH]n4)cc3)nc2n1CCC1CCOCC1` has an IC50 [36] of 18 nM, an activity at 10 µM [37] of 93% and an IC50 (PC-3 [35]) of 224 nM. The IC50 (mTORC1) was 40 nM and the bioavailability [23] was 0.85%.
Molecule `CC(C)(O)c1ccc(-c2cnc3[nH]c(=O)n(CC4CCOCC4)c3n2)cn1` has an IC50 [11] greater than 30000 nM, an IC50 [36] of 2550 nM and an IC50 (PC-3 [35]) of 4180 nM. It also gave an IC50 (mTORC1) of 2410 nM.
